From US20140228287A1, “1-[(3-CYANO-PYRIDIN-2-YL)METHYL]-3-METHYL-7-(2-BUTYN-1-YL)-8-[3-(R)-AMINO-PIPERIDIN-1-YL]-AXANTHINE FOR THE TREATMENT OF A METABOLIC DISORDER OF A PREDOMINANTLY CARNIVOROUS NON-HUMAN ANIMAL” (BOEHRINGER INGELHEIM VETMEDICA GMBH, priority 2010, published 2014)
Where a name gives a salt, the structure may show the parent alone.

System: plasma DPP IV
Experiment: Plasma DPP IV activity after oral administration, Beagle dog
Type: in vivo
Conditions: 3 mg/kg oral, 24 hours post dose
Method: The effect of 1-[(3-cyano-pyridin-2-yl)methyl]-3-methyl-7-(2-butyn-1-yl)-8-[3-(R)-amino-piperidin-1-yl]-xanthine on plasma DPP IV activity after oral administration was investigated in the rat, the Beagle dog and the Rhesus monkey. These investigations were conducted as described in the following.
Overnight fasted male Beagle dogs (n=4 per group) were administered oral doses of 1-[(3-cyano-pyridin-2-yl)methyl]-3-methyl-7-(2-butyn-1-yl)-8-[3-(R)-amino-piperidin-1-yl]-xanthine monohydrochloride at 3 and 12 mg/kg body weight. Blood samples were drawn from a butterfly inserted in either the right or left forearm vein. Blood was collected in EDTA tubes prior to administration of 1-[(3-cyano-pyridin-2-yl)methyl]-3-methyl-7-(2-butyn-1-yl)-8-[3-(R)-amino-piperidin-1-yl]-xanthine monohydrochloride and subsequently at 1, 2, 4, 8, and 24 hour time points post dose. Plasma was prepared following blood collection and frozen for determination of DPP-IV activity.

## CC#CCn1c(N2CCC[C@@H](N)C2)nc2c1c(=O)n(Cc1ncccc1C#N)c(=O)n2C [1-[(3-cyano-pyridin-2-yl)methyl]-3-methyl-7-(2-butyn-1-yl)-8-[3-(R)-amino-piperidin-1-yl]-xanthine monohydrochloride]
  inhibition of plasma DPP IV activity: 76%
